{"source": "paper PMC8472786", "about": "“Inhibitory Effects of Artificial Sweeteners on Bacterial Quorum Sensing” (International Journal of Molecular Sciences, 2021)", "note": "Where a SMILES comes first, the peptide text is derived from it.", "data": [{"biological_target": "T1, LasR (Pseudomonas aeruginosa, UniProt P25084)", "T1 construct": "full-length LasR", "T1 sequence (P25084 whole entry)": "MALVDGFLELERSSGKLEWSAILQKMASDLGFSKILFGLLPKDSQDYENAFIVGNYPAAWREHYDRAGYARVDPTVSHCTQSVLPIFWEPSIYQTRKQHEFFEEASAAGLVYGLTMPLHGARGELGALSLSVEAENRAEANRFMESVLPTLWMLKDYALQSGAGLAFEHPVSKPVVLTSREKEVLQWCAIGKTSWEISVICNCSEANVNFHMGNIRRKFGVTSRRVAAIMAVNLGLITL", "experiment": "microscale thermophoresis with fluorescently labeled purified LasR", "format": "binding", "units": {"Kd": "µM"}, "values": [{"smiles": "OC[C@H]1O[C@H](O[C@]2(CCl)O[C@H](CCl)[C@@H](O)[C@@H]2O)[C@H](O)[C@@H](O)[C@H]1Cl", "note": "[sucralose]", "Kd": 12.8}, {"smiles": "COC(=O)[C@H](Cc1ccccc1)NC(=O)[C@@H](N)CC(=O)O", "note": "[aspartame] (H-Asp-Phe-OMe)", "Kd": 11.8}, {"smiles": "O=C1NS(=O)(=O)c2ccccc21", "note": "[saccharin]", "Kd": 12.9}]}]}
